What was measured:
[1] = system: Wnt pathway; test: Cellular assay for Wnt pathway activity, LS174T-shl-fLuc clone 5 (LS174T-L5) luciferase reporter assay; format: cell-based; conditions: Homo sapiens; LS174T TCF luciferase reporter cells, 24 hours incubation
Description: 1. Cellular Assay for Wnt Pathway Activity LS174T-shl-fLuc Clone 5 (LS174T-L5) Reporter Assay Principle:
This assay is based on an in-vitro luciferase activity readout. The human colon cancer cell line, LS174T was transduced with a lentivirus encoding a short half-life luciferase (with a destabilised PEST sequence construct; construct F1756): 16×TCF/LEF transcription sites—short half life firefly luciferase on a basal pTA promoter—puromycin resistance gene on an EF-1-α promoter). This construct was made using the lentiviral base vector: pCDF1-MCS2-EF1-Puro from System Biosciences (cat. # CD110B-1). The luciferase has a T1/2 of about 60 minutes.
Stable luciferase-expressing clones were selected, using 1 μg/mL puromycin selection and the clones were bulked up.
Compounds that inhibit the Wnt pathway are predicted to inhibit the induction of luciferase transcription by TCF; this will result in reduced luciferase protein production and luciferase signal readout.
Compounds were tested for their Wnt pathway inhibitory activities using the described firefly luciferase reporter cell based assay. An LS174T luciferase reporter cell line was used which contained a T-Cell Factor (TCF) dependent gene promoter firefly luciferase construct.
Compounds, in concentrations from 30 μM to 1 nM, were incubated for 24 hours on the cells. Luciferase activities were determined using the Steady Glo Luciferase Assay System (Promega) and the TOPCOUNT microplate reader (Perkin Elmer). For analysis, the obtained data were normalized against the untreated vehicle control and fitted for determination of the IC50 values using the Excel Fit application of the Excel Software (Microsoft).

[2] = CLint (intrinsic clearance) assay, liver microsomal incubation; format: in vitro ADME, human; conditions: liver microsomes, pH 7.4; human hepatic microsomes, 0.5 mg/mL protein, class symbols
Procedure: Also shown is the human hepatic microsomal intrinsic clearance (CLint), whereby the following classification is used:
2. CLint (Intrinsic Clearance) Assay
A Tecan Genesis workstation (RWS ASY 150/8) was used to perform the microsomal incubations. Analysis was carried out using a Waters ACQUITY UPLC system coupled to an ABSciex API3000 mass spectrometer. Data analysis was performed using Assay Explorer (Symyx).
Column: Acquity UPLC BEH C18, 2.1×50 mm, 1.7 um (Waters)
Mobile phases: • A=0.1% formic acid in water • B=acetonitrile
Column temperature: 50° C.
0.1 M potassium phosphate buffer pH 7.4 containing 1 mM MgCl2
15 mM NADPH in phosphate buffer
5.0 mg protein/mL liver microsomes in phosphate buffer
Each experiment consists of 12 test and 2 reference compounds. The reference compounds are incubated as a cocktail.
Dilution of test compounds was done in 2 steps from a 10 mM DMSO stock solution. First 4 μL stock solution was added to 196 μL of 20% DMSO in potassium phosphate buffer pH 7.4. In a second step 10 μL of the first dilution were added to 1890 μL potassium phosphate buffer and 100 μL internal standard solution to a final concentration of […].
100 μL of the final compound dilution were aliquoted into a 96 deep well plate. 12.5 μL liver microsomes were added to each well (0.5 mg/mL final protein concentration) and the samples preincubated for 5 min at 37° C. and 800 rpm agitation.
After the preincubation, 250 μL cold acetonitrile were added to the 0 min samples to prevent a reaction. Following this, 12.5 μL NADPH solution were added to all wells to start the incubation, with the exception of the 0 min and 30 min controls without cofactor, where the NADPH was substituted for phosphate buffer.
The incubations were stopped after 5, 10, 20 and 30 min by adding 250 μL cold acetonitrile to the individual wells.
The quenched samples were then centrifuged at 4000 g for 1 h at 4° C. 100 μL of the supernatant were transferred into 96 well plates for analysis.
The metabolic stability of each compound was determined by measurement of the change in LC-MS/MS peak area over time. Assay Explorer software was used to automatically calculate the slope k of the decline. The intrinsic clearance (CLint) of each compound was then calculated according to the formula: CLint(μL/min/mg protein)=k1000/protein concentration.

Compound	IC50 [1] [µM]	microsomal CLint at 0.8 μM [2] [µL/min/mg]
CN1C(=O)Cc2cc(-c3cnc(N)c(Cl)c3N3CCC4(CCNC4=O)CC3)ccc21 [Compound 15, 8-[2-Amino-3-chloro-5-(1-methyl-2-oxo-2,3-dihydro-1H-indol-5-yl)-pyridin-4-yl]-2,8-diaza-spiro[4.5] decan-1-one]	0.054	10 to 50
Cn1ncc2ccc(-c3cnc(N)c(Cl)c3N3CCC4(CCNC4=O)CC3)cc21 [Compound 23, 8-[2-Amino-3-chloro-5-(1-methyl-1H-indazol-6-yl)-pyridin-4-yl]-2,8-diaza-spiro[4.5] decan-1-one]	0.021	10 to 50
Cn1cc(-c2ccc(-c3cnc(N)c(C(F)(F)F)c3N3CCC4(CCNC4=O)CC3)cc2)cn1 [Compound 43, 8-{2-Amino-5-[4-(1-methyl-1H-pyrazol-4-yl)-phenyl]-3-trifluoromethyl-pyridin-4-yl}-2,8-diaza-spiro[4.5] decan-1-one]	0.046	10 to 50
Cn1ncc2cc(-c3cnc(N)c(Cl)c3N3CCC4(CC3)CC(=O)NC4=O)ccc21 [Compound 17, 8-[2-Amino-3-chloro-5-(1-methyl-1H-indazol-5-yl)-pyridin-4-yl]-2,8-diaza-spiro[4.5] decane-1,3-dione]	0.002	10 to 50
CN1CCN(c2ccc(-c3cnc(N)c(Cl)c3N3CCC(C#N)CC3)cc2)CC1 [Compound 30, 1-(2-Amino-3-chloro-5-(4-(4-methylpiperazin-1-yl)phenyl)pyridin-4-yl)piperidine-4-carbonitrile]	0.012	10 to 50
CN1C(=O)CCc2cc(-c3cnc(N)c(Cl)c3N3CCC4(CCNC4=O)CC3)ccc21 [Compound 14, 6-[6-Amino-5-chloro-4-(1-oxo-2,8-diaza-spiro[4.5]dec-8-yl)-pyridin-3-yl]-1-methyl-3,4-dihydro-1H-quinolin-2-one]	0.04	10 to 50
CN1C(=O)Cc2cc(-c3cnc(N)c(C(F)(F)F)c3N3CCC4(CCNC4=O)CC3)ccc21 [Compound 51, 8-[2-Amino-5-(1-methyl-2-oxo-2,3-dihydro-1H-indol-5-yl)-3-trifluoromethyl-pyridin-4-yl]-2,8-diaza-spiro[4.5] decan-1-one]	0.455	10 to 50
Cn1cc(-c2ccc(-c3cnc(N)c(Cl)c3N3CCC4(CC3)CNC(=O)O4)cc2)cn1 [Compound 10, 8-{2-Amino-3-chloro-5-[4-(1-methyl-1H-pyrazol-4-yl)-phenyl]-pyridin-4-yl}-1-oxa-3,8-diaza-spiro[4.5] decan-2-one]	0.036	10 to 50
Nc1ncc(-c2ccc(-c3cnn(CCO)c3)cc2)c(N2CCC3(CC2)NCCNC3=O)c1Cl [Compound 45, 9-(2-Amino-3-chloro-5-{4-[1-(2-hydroxy-ethyl)-1H-pyrazol-4-yl]-phenyl}-pyridin-4-yl)-1,4,9-triaza-spiro[5.5] undecan-5-one]	0.56	
Nc1ncc(-c2ccc3c(N)n[nH]c3c2)c(N2CCC3(CC2)CC(=O)NC3=O)c1Cl [Compound 12, 8-[2-Amino-5-(3-amino-1H-indazol-6-yl)-3-chloro-pyridin-4-yl]-2,8-diaza-spiro[4.5] decane-1,3-dione]	0.031	10 to 50
CN1c2ccc(-c3cnc(N)c(F)c3N3CCC4(CCNC4=O)CC3)cc2CS1(=O)=O [Compound 61, 8-[2-Amino-3-fluoro-5-(1-methyl-2,2-dioxo-2,3-dihydro-1H-2l6-benzo[c]isothiazol-5-yl)-pyridin-4-yl]-2,8-diaza-spiro[4.5]decan-1-one]	0.0601	10 to 50
N#CC1CCN(c2c(-c3ccc(N4CCOCC4)cc3)cnc(N)c2Cl)CC1 [Compound 27, 1-(2-Amino-3-chloro-5-(4-morpholinophenyl)pyridin-4-yl)piperidine-4-carbonitrile]	0.034	100 to 150
CCN1Cc2cc(-c3cnc(N)c(Cl)c3N3CCC4(CCNC4=O)CC3)ccc2S1(=O)=O [Compound 68, 8-[2-Amino-3-chloro-5-(2-ethyl-1,1-dioxo-2,3-dihydro-1H-1l6-benzo[d]isothiazol-5-yl)-pyridin-4-yl]-2,8-diaza-spiro[4.5]decan-1-one]	0.059	< 10
Cn1ncc2cc(-c3cnc(N)c(Cl)c3N3CCC4(CCNC4=O)CC3)ccc21 [Compound 25, 8-(2-Amino-3-chloro-5-(1-methyl-1H-indazol-5-yl)pyridin-4-yl)-2,8-diazaspiro[4.5]decan-1-one]	0.034	50 to 100
Nc1ncc(-c2ccc3c(c2)CCC(=O)N3)c(N2CCC3(CCNC3=O)CC2)c1Cl [Compound 19, 6-[6-Amino-5-chloro-4-(1-oxo-2,8-diaza-spiro[4.5]dec-8-yl)-pyridin-3-yl]-3,4-dihydro-1H-quinolin-2-one]	0.075	10 to 50
Nc1ncc(-c2ccc3c(N)n[nH]c3c2)c(N2CCC3(CCNC3=O)CC2)c1Cl [Compound 3, 8-[2-Amino-5-(3-amino-1H-indazol-6-yl)-3-chloro-pyridin-4-yl]-2,8-diaza-spiro[4.5] decan-1-one]	0.12	< 10
CN1c2ccc(-c3cnc(N)c(C(F)(F)F)c3N3CCC4(CC3)CNC(=O)O4)cc2CS1(=O)=O [Compound 42, 8-[2-Amino-5-(1-methyl-2,2-dioxo-2,3-dihydro-1H-2I6-benzo[c]isothiazol-5-yl)-3-trifluoro-methyl-pyridin-4-yl]-1-oxa-3,8-diaza-spiro[4.5] decan-2-one]	0.011	10 to 50
Cn1cc(-c2ccc(-c3cnc(N)c(Cl)c3N3CC[C@H](C#N)[C@@H](O)C3)cc2)cn1 (racemic) [Compound 56, rac (3R,4R)-2′-Amino-3′-chloro-3-hydroxy-5′-[4-(1-methyl-1H-pyrazol-4-yl)-phenyl]-3,4,5,6-tetrahydro-2H-[1,4′] bipyridinyl-4-carbonitrile]	0.531	10 to 50
Cn1cc(-c2ccc(-c3cnc(N)c(Cl)c3N3CCC4(CC3)CC(=O)NC4=O)cc2)cn1 [Compound 38, 8-(2-Amino-3-chloro-5-(4-(1-methyl-1H-pyrazol-4-yl)phenyl)pyridin-4-yl)-2,8-diazaspiro[4.5]decane-1,3-dione]	0.002	
CN1C(=O)Cc2cc(-c3cnc(N)c(Cl)c3N3CCC4(CC3)CNC(=O)O4)ccc21 [Compound 36, 8-[2-Amino-3-chloro-5-(1-methyl-2-oxo-2,3-dihydro-1H-indol-5-yl)-pyridin-4-yl]-1-oxa-3,8-diaza-spiro[4.5] decan-2-one]	> 0.3	
Nc1ncc(-c2ccc3c(N)n[nH]c3c2)c(N2CCC3(CC2)CNC(=O)O3)c1Cl [Compound 37, 8-[2-Amino-5-(3-amino-1H-indazol-6-yl)-3-chloro-pyridin-4-yl]-1-oxa-3,8-diaza-spiro[4.5] decan-2-one]	2.3	
Nc1ncc(-c2ccc3[nH]ncc3c2)c(N2CCC3(CCNC3=O)CC2)c1Cl [Compound 35, 8-[2-Amino-3-chloro-5-(1H-indazol-5-yl)-pyridin-4-yl]-2,8-diaza-spiro[4.5] decan-1-one]	0.085	
Cn1cc(-c2ccc(-c3cnc(N)c(C(F)(F)F)c3N3CCC(C(N)=O)CC3)cc2)cn1 [Compound 48, 2′-Amino-5′-[4-(1-methyl-1H-pyrazol-4-yl)-phenyl]-3′-trifluoro-methyl-3,4,5,6-tetrahydro-2H-[1,4′] bipyridinyl-4-carboxylic acid amide]	0.16	

From patent US9834541B2, “2-aminopyridine compounds” (Merck Patent GmbH, priority 2012, dated 2017)
